Measurements published in PubChem BioAssay (NCI).
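Where inhibition never reached the appropriate level, the endpoint shown equals the highest concentration tested. Otherwise, values were interpolated linearly from a five-concentration, 48-hour dose response in 96-well plates. Here, GI50 denotes the concentration required for 50% inhibition of growth. TGI denotes the concentration required for complete inhibition of growth.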

Assays:
Assay in all cases: NCI tumour cell line growth inhibition, 48 h
786-0 renal = tested on: 786-0 renal
CAKI-1 renal = tested on: CAKI-1 renal
HCC-2998 colon = tested on: HCC-2998 colon
MOLT-4 leukemia = tested on: MOLT-4 leukemia
NCI-H23 lung = tested on: NCI-H23 lung
OVCAR-4 ovarian = tested on: OVCAR-4 ovarian
OVCAR-5 ovarian = tested on: OVCAR-5 ovarian
OVCAR-8 ovarian = tested on: OVCAR-8 ovarian
SW-620 colon = tested on: SW-620 colon
U251 CNS = tested on: U251 CNS

Row | Compound | GI50 (786-0 renal) [µM] | TGI (786-0 renal) [µM] | GI50 (CAKI-1 renal) [µM] | TGI (CAKI-1 renal) [µM] | GI50 (HCC-2998 colon) [µM] | TGI (HCC-2998 colon) [µM] | GI50 (MOLT-4 leukemia) [µM] | TGI (MOLT-4 leukemia) [µM] | GI50 (NCI-H23 lung) [µM] | TGI (NCI-H23 lung) [µM] | GI50 (OVCAR-4 ovarian) [µM] | TGI (OVCAR-4 ovarian) [µM] | GI50 (OVCAR-5 ovarian) [µM] | TGI (OVCAR-5 ovarian) [µM] | GI50 (OVCAR-8 ovarian) [µM] | TGI (OVCAR-8 ovarian) [µM] | GI50 (SW-620 colon) [µM] | TGI (SW-620 colon) [µM] | GI50 (U251 CNS) [µM] | TGI (U251 CNS) [µM]
1 | Oc1cn(-c2ccc(Cl)cc2)nc1-c1n[nH]c(=S)n1C1CCCCC1 | 1.82 | > 100 | 0.389 | > 100 | 2.33 | 14.3 | 0.5 | > 29 | 0.322 | 1.98 | 31.8 | > 100 | 3.05 | > 100 | 0.46 | 16.8 | 0.475 | > 100 | 0.467 | > 100
2 | O=C(Nc1ccc(CO)cc1)c1coc2ccccc2c1=O | > 100 | > 100 | > 100 | > 100 | > 100 | > 100 | > 100 | > 100 | > 100 | > 100 | > 100 | > 100 | > 100 | > 100 | > 100 | > 100 | > 100 | > 100 | > 100 | > 100
3 | O=C(Nc1ccc(-c2ccccc2)cc1)C1CCN(S(=O)(=O)c2ccccc2Cl)CC1 | 23.6 | 77.9 | 53 | > 100 | 59.2 | > 100 | > 100 | > 100 | 76.2 | > 100 | 22.3 | > 100 | 50 | > 100 | 22.7 | 57.1 | 82.3 | > 100 | 18.8 | 67.3
4 | CCn1c(CO)nn(-c2cc(O[C@@H](C)C(F)(F)F)c(C(=O)Nc3c(F)cccc3Cl)cc2F)c1=O | < 0.0197 | > 78 | < 0.0148 | > 100 | < 0.01 | > 100 | < 0.01 | > 100 | < 0.0438 | > 100 | – | > 100 | > 100 | > 100 | < 0.01 | > 100 | < 0.01 | > 100 | < 0.01 | > 100
5 | O=C(/C=C/c1cc(CN2CCOCC2)c(O)c2ncccc12)c1cc(CN2CCOCC2)c(O)c2ncccc12 | 0.0802 | > 32.6 | 0.0842 | > 100 | 0.0506 | > 100 | 0.0529 | > 100 | 0.0586 | > 100 | 0.0804 | > 100 | 0.0585 | > 100 | 0.0359 | > 100 | < 0.0186 | > 100 | < 0.0172 | 4.95
6 | [Au+].[Au+].[Au+].[c-]1nccn1Cc1ccccc1.[c-]1nccn1Cc1ccccc1.[c-]1nccn1Cc1ccccc1 | 1.73 | 3.11 | 11.2 | 25.9 | 14.4 | 37.9 | 7.96 | > 100 | 4.97 | 30.7 | 12.7 | 44.1 | 27.8 | 61.9 | 5.06 | > 42.6 | 7.78 | > 19.7 | 9.03 | –
7 | CCC(C)(C)c1ccc(OCCCCCCN2CCNCC2)cc1 | 1.73 | 3.23 | 2.26 | 7.09 | 2 | 3.76 | 2.03 | 5.11 | 2.85 | 8.36 | 1.96 | 5.03 | 2.11 | 5.39 | 2.45 | 5.3 | 1.95 | 3.97 | 1.68 | 3.45
8 | Nc1nc(SN=Nc2ccc(S(N)(=O)=O)cc2)c2[nH]cnc2n1 | 0.407 | > 100 | 0.332 | 6.57 | 0.508 | > 100 | 0.32 | 6.93 | 0.623 | > 100 | 0.581 | > 51.1 | 0.629 | > 100 | 0.419 | > 100 | 0.659 | > 100 | 2.66 | > 100
9 | COC(=O)CCC(=O)CC1CC(=O)C2CCCN12 (stereo not drawn) | – | > 100 | – | > 100 | – | > 100 | – | > 100 | – | > 100 | – | > 100 | – | > 100 | – | > 100 | – | > 100 | – | > 100
10 | Cc1ccc(C2(O)CC(c3ccc([N+](=O)[O-])o3)=NN2C(=O)COc2ccc(Cl)cc2)cc1 (stereo not drawn) | – | 18 | – | 67.5 | – | 16.8 | – | > 100 | – | 11.9 | – | 77.9 | – | > 94.9 | – | 20.3 | – | 10.6 | – | 9.09
11 | COC(=O)/C(C=O)=C/Sc1ccccc1 | – | 30.2 | – | 62 | – | > 100 | – | > 100 | – | > 100 | – | > 100 | – | 93.8 | – | 31.8 | – | > 100 | – | 42.2
12 | COc1cc2c(cc1O)C1Cc3ccc(OC)c(O)c3C(C2)N1C (stereo not drawn) | – | > 100 | – | > 100 | – | > 100 | – | > 100 | – | > 100 | – | > 100 | – | > 100 | – | > 100 | – | > 100 | – | > 100
